These results are taken from patent US20220071999A1, “DESIGN AND DISCOVERY OF BD OXIDASE INHIBITORS FOR THE TREATMENT OF MYCOBACTERIAL DISEASES” (UNIVERSITY OF NOTRE DAME DU LAC, priority 2018, published 2022).

Read-outs that look alike come from different tables or passages of the source. Some results are limits rather than exact numbers.

In experiment [1] the test system is Mycobacterium abscessus clinical specimens. Description: checkerboard assay (MIC) against Mycobacterium abscessus clinical specimens. It is filed as cell-based. Conditions: for MIC: Mycobacteroides abscessus; for Activity (effect on MICs in combination): ND-11992 with ND-11598. How it is done:
ND-11992 (bd oxidase inhibitor) and ND-11598 (cyt-bc1:aa3 inhibitor) were evaluated against various Mycobacterium abscessus clinical specimens in a checkerboard assay. Additive effects on MICs were observed when both drugs were used in combination. MIC values are given in μg/mL.

Experiment [2] deals with Nontuberculous mycobacteria (NTM) clinical isolates of the Mycobacterium avium-intracellulare complex (MAIC). Description: checkerboard assay (MIC) against NTM clinical isolates of the MAIC. It is filed as cell-based. Conditions: for MIC: Mycobacterium avium-intracellulare. How it is done: ND-11992 (bd oxidase inhibitor) and ND-11598 (cyt-bc1:aa3 inhibitor) were evaluated against various Nontuberculous mycobacteria (NTM) clinical isolates of the Mycobacterium avium-intracellulare complex (MAIC) in a checkerboard assay. Additive and synergistic effects on MICs were observed when both drugs were used in combination. MIC values are given in μg/mL.

In experiment [3] the test system is M. tuberculosis. The experiment in a line: acute murine model of M. tuberculosis infection, alone and in combination. In kind it is in vivo. How it is done:
ND-11992 (bd oxidase inhibitor) and Q203 (cyt-bc1:aa3 inhibitor) were evaluated in an acute murine model of M. tuberculosis infection alone and in combination. ND-11992 (10 mg/kg PO)+Q203 (5 mg/kg PO) results in bactericidal efficacy with 1.5 log 10 CFU drop in bacteria when dosed orally for 5 days. […] Both compounds were bacteriostatic when dosed alone as single agents.

`Cc1ccn2c(C(=O)NCc3ccc(N4CCCN(c5ccc(C(F)(F)F)cc5)CC4)c(F)c3)c(C)nc2c1` [ND-11598]: the MIC in experiment [1] (M. abscessus Clinical Isolate #8, read-out: MIC ND-11598 alone) was over 10 µg/mL; in experiment [1] (M. abscessus Clinical Isolate #8, with 5 μg/ml ND 11992, read-out: ND-11598 MIC with 5 μg/ml ND 11992), 5 µg/mL; in experiment [1] (M. abscessus Clinical Isolate #38, read-out: MIC ND-11598 alone) it was over 10 µg/mL; in experiment [1] (M. abscessus Clinical Isolate #38, with 5 μg/ml ND 11992, read-out: ND-11598 MIC with 5 μg/ml ND 11992), 5 µg/mL; in experiment [1] (M. abscessus Clinical Isolate #50, read-out: MIC ND-11598 alone), over 10 µg/mL; in experiment [1] (M. abscessus Clinical Isolate #50, with 5 μg/ml ND 11992, read-out: ND-11598 MIC with 5 μg/ml ND 11992) it was 10 µg/mL. Besides, the MIC in experiment [2] (NTM Clinical Isolate #25, read-out: MIC ND-11598 alone) worked out at 0.25 µg/mL; in experiment [2] (NTM Clinical Isolate #25, with 0.5 μg/ml ND 11992, read-out: ND-11598 MIC with 0.5 μg/ml ND 11992), 0.0156 µg/mL; in experiment [2] (NTM Clinical Isolate #50, read-out: MIC ND-11598 alone), 1 µg/mL; in experiment [2] (NTM Clinical Isolate #50, with 0.5 μg/ml ND 11992, read-out: ND-11598 MIC with 0.5 μg/ml ND 11992) it was 0.0156 µg/mL; in experiment [2] (NTM MAIC A5 (serotype 4), read-out: MIC ND-11598 alone), 1 µg/mL; in experiment [2] (NTM MAIC A5 (serotype 4), with 0.5 μg/ml ND 11992, read-out: ND-11598 MIC with 0.5 μg/ml ND 11992), 0.25 µg/mL. Moreover, the MIC in experiment [2] (NTM MAIC Serovar #4, read-out: MIC ND-11598 alone) is over 10 µg/mL; in experiment [2] (NTM MAIC Serovar #4, with 0.5 μg/ml ND 11992, read-out: ND-11598 MIC with 0.5 μg/ml ND 11992), 0.25 µg/mL; in experiment [2] (NTM MAIC Serovar #5, read-out: MIC ND-11598 alone) it was over 10 µg/mL; in experiment [2] (NTM MAIC Serovar #5, with 0.5 μg/ml ND 11992, read-out: ND-11598 MIC with 0.5 μg/ml ND 11992) it was 1 µg/mL; in experiment [2] (NTM MAIC Serovar #6, read-out: MIC ND-11598 alone) it was 0.0156 µg/mL; in experiment [2] (NTM MAIC Serovar #6, with ND-11992 at 1 (column head: 0.5 μg/ml), read-out: ND-11598 MIC with ND 11992), 0.0078 µg/mL. In addition, the MIC in experiment [2] (NTM MAIC Serovar #10, read-out: MIC ND-11598 alone) was determined as 10 µg/mL; in experiment [2] (NTM MAIC Serovar #10, with 0.5 μg/ml ND 11992, read-out: ND-11598 MIC with 0.5 μg/ml ND 11992) it was 0.25 µg/mL.

`FC(F)(F)c1ccc(Oc2ccc(Nc3ncnc4ccccc34)cc2)cc1` [ND-11992]: the MIC in experiment [1] (M. abscessus Clinical Isolate #8, with 5 μg/ml of ND-11598, read-out: ND-11992 MIC with 5 μg/ml of ND-11598) stood at 5 µg/mL; in experiment [1] (M. abscessus Clinical Isolate #38, with 5 μg/ml of ND-11598, read-out: ND-11992 MIC with 5 μg/ml of ND-11598) it was 5 µg/mL; in experiment [1] (M. abscessus Clinical Isolate #50, with 5 μg/ml of ND-11598, read-out: ND-11992 MIC with 5 μg/ml of ND-11598), 10 µg/mL; in experiment [2] (NTM Clinical Isolate #25, ND-11598 was only 0.125 μg/ml (column head: 0.5 μg/ml), read-out: ND-11992 MIC with ND-11598), 0.0625 µg/mL; in experiment [2] (NTM Clinical Isolate #50, with 0.5 μg/ml of ND-11598, read-out: ND-11992 MIC with 0.5 μg/ml of ND-11598), 0.125 µg/mL; in experiment [2] (NTM MAIC A5 (serotype 4), with 0.5 μg/ml of ND-11598, read-out: ND-11992 MIC with 0.5 μg/ml of ND-11598) it was 0.25 µg/mL. Also, the MIC was found to be 0.5 µg/mL in experiment [2] (NTM MAIC Serovar #4, with 0.5 μg/ml of ND-11598, read-out: ND-11992 MIC with 0.5 μg/ml of ND-11598); 1 µg/mL in experiment [2] (NTM MAIC Serovar #5, with 0.5 μg/ml of ND-11598, read-out: ND-11992 MIC with 0.5 μg/ml of ND-11598); 0.5 µg/mL in experiment [2] (NTM MAIC Serovar #10, with 0.5 μg/ml of ND-11598, read-out: ND-11992 MIC with 0.5 μg/ml of ND-11598). Also, the “Activity (effect on MICs in combination)” value is reported as “Additive” in experiment [1] (M. abscessus Clinical Isolate #8); “Additive” in experiment [1] (M. abscessus Clinical Isolate #38); “Additive” in experiment [1] (M. abscessus Clinical Isolate #50); “Additive” in experiment [2] (ND-11992 with ND-11598, NTM MAIC Serovar #6). Further, in experiment [3] (10 mg/kg of ND-11992 alone), the CFU drop entry is recorded as “no CFU drop”. Moreover, the “type of efficacy (bactericidal/bacteriostatic)” value in experiment [3] (combination ND-11992 10 mg/kg PO + Q203 5 mg/kg PO, 5 days) is “bactericidal”; in experiment [3] (dosed alone as single agents), “bacteriostatic”. Also, the “CFU drop in bacteria” value in experiment [3] (combination ND-11992 10 mg/kg PO + Q203 5 mg/kg PO, dosed orally for 5 days) is 1.5 log 10 CFU.

On to `CCc1nc2ccc(Cl)cn2c1C(=O)NCc1ccc(N2CCC(c3ccc(OC(F)(F)F)cc3)CC2)cc1` [Q203], for which the “type of efficacy (bactericidal/bacteriostatic)” value in experiment [3] (dosed alone as single agents) is recorded as “bacteriostatic”.
